Format in all cases: functional
Assay [1] concerns Escherichia coli. In words: Antibacterial activity against Escherichia coli INSRA5776 isolates expressing CTX-M-14 and TEM-1B enzymes by agar dilution method.
In assay [2] the test system is Escherichia coli. In words: Antibacterial activity against CTX-M group 1 enzyme producing Escherichia coli isolates by broth microdilution method.
Assay [3] concerns Escherichia coli. In words: Antibacterial activity against CTX-M group 1 enzyme producing Escherichia coli isolates assessed as percent resistant isolates by broth microdilution method.
For assay [4], the system named is Escherichia coli. Kind of assay: Antibacterial activity against CTX-M group 1 enzyme producing Escherichia coli isolates assessed as percent nonsusceptible isolates by broth microdilution method.
Assay [5] relates to Escherichia coli. In words: Antibacterial activity against CTX-M group 9 enzyme producing Escherichia coli isolates by broth microdilution method.
Assay [6] relates to Escherichia coli. In words: Antibacterial activity against CTX-M group 9 enzyme producing Escherichia coli isolates assessed as percent resistant isolates by broth microdilution method.
The test system of assay [7] is Escherichia coli. In words: Antibacterial activity against CTX-M group 9 enzyme producing Escherichia coli isolates assessed as percent nonsusceptible isolates by broth microdilution method.
Assay [8] deals with Escherichia coli. Kind of assay: Antibacterial activity against Escherichia coli DH5 alpha isolates by agar dilution method.
Assay [9] has as its system Escherichia coli. Kind of assay: Antibacterial activity against Escherichia coli DH5 alpha-URA5776 isolates expressing CTX-M-14 enzyme by agar dilution method.
Assay [10] relates to Escherichia coli. In words: Antibacterial activity against Escherichia coli INSRA5905 isolates expressing CTX-M-15 and TEM-1B enzymes by agar dilution method.
Assay [11] concerns Escherichia coli. In words: Antibacterial activity against Escherichia coli DH5 alpha-URA5905 isolates expressing CTX-M-15 and TEM-1B enzymes by agar dilution method.
For assay [12], the system named is Escherichia coli. In words: Antibacterial activity against Escherichia coli INSRA5924 isolates expressing CTX-M-32 and TEM-1B enzymes by agar dilution method.
For assay [13], the system named is Escherichia coli. In words: Antibacterial activity against Escherichia coli DH5 alpha-URA5924 isolates expressing CTX-M-32 by agar dilution method.

SMILES strings stand for the structures. Converted amounts (≈) assume the structure as drawn.

For the compound `CO[C@@]1(NC(=O)Cc2cccs2)C(=O)N2C(C(=O)O)=C(COC(N)=O)CS[C@@H]21` [CEFOXITIN], the MIC against Escherichia coli [1] amounted to 32 µg/mL (≈ 74.9 µM); in the assay with Escherichia coli [8], 4 µg/mL (≈ 9.36 µM); against Escherichia coli [9] it was 4 µg/mL (≈ 9.36 µM); in the assay with Escherichia coli [10], 16 µg/mL (≈ 37.4 µM); against Escherichia coli [11] it was 4 µg/mL (≈ 9.36 µM); against Escherichia coli [12] it was 16 µg/mL (≈ 37.4 µM). In the assay with Escherichia coli [13], this compound showed an MIC of 8 µg/mL (≈ 18.7 µM). Also, the MIC50 against Escherichia coli [2] and against Escherichia coli [5] was at most 4 µg/mL each time. For the same compound, the MIC90 is 8 µg/mL (≈ 18.7 µM) in the assay with Escherichia coli [2] and above 16 µg/mL with Escherichia coli [5]. For the same compound, the Activity in the assay on Escherichia coli [3] was 1%; with Escherichia coli [4], 5%; in the assay with Escherichia coli [6] it was 0%; in the assay with Escherichia coli [7], 11%.

Consider `C[C@H]1[C@H](NC(=O)/C(=N\OC(C)(C)C(=O)O)c2csc(N)n2)C(=O)N1S(=O)(=O)O` [AZTREONAM], for which the MIC was determined as 8 µg/mL (≈ 18.4 µM) against Escherichia coli [1]; 8 µg/mL (≈ 18.4 µM) in the assay on Escherichia coli [9]; 128 µg/mL (≈ 294 µM) in the assay with Escherichia coli [10]; 64 µg/mL (≈ 147 µM) with Escherichia coli [11]; 64 µg/mL (≈ 147 µM) with Escherichia coli [12]; 64 µg/mL (≈ 147 µM) against Escherichia coli [13]. Also, the MIC50 against Escherichia coli [2] was above 16 µg/mL; against Escherichia coli [5], 8 µg/mL (≈ 18.4 µM). The MIC90 in the assay on Escherichia coli [2] and with Escherichia coli [5] was above 16 µg/mL in each case. Moreover, the Activity with Escherichia coli [3] is 100%; in the assay on Escherichia coli [4], 100%; in the assay on Escherichia coli [6], 11%; in the assay with Escherichia coli [7], 22%.

In the case of `CO/N=C(\C(=O)N[C@@H]1C(=O)N2C(C(=O)[O-])=C(C[N+]3(C)CCCC3)CS[C@H]12)c1csc(N)n1`, the MIC came out at 8 µg/mL (≈ 16.6 µM) against Escherichia coli [1]; 0.03 µg/mL (≈ 0.0624 µM) against Escherichia coli [8]; 2 µg/mL (≈ 4.16 µM) against Escherichia coli [9]; 8 µg/mL (≈ 16.6 µM) in the assay with Escherichia coli [11]; 16 µg/mL (≈ 33.3 µM) in the assay with Escherichia coli [12]; 4 µg/mL (≈ 8.32 µM) with Escherichia coli [13]. Also, the MIC50 in the assay on Escherichia coli [2] and in the assay with Escherichia coli [5] was above 16 µg/mL throughout. Further, the MIC90 with Escherichia coli [2] and with Escherichia coli [5] was above 16 µg/mL throughout. The Activity with Escherichia coli [6] is 78%; with Escherichia coli [7], 100%.

On to `CCn1cc(C(=O)O)c(=O)c2cc(F)c(N3CCNCC3)cc21` [NORFLOXACIN], for which the MIC50 is above 8 µg/mL against Escherichia coli [2] and at most 2 µg/mL in the assay on Escherichia coli [5]. Moreover, the MIC90 against Escherichia coli [2] and in the assay with Escherichia coli [5] was above 8 µg/mL in each case. Moreover, the Activity with Escherichia coli [3] stood at 98%; with Escherichia coli [4], 98%; in the assay on Escherichia coli [6] it was 33%; in the assay on Escherichia coli [7] it was 33%.

`CC(C)(O/N=C(\C(=O)N[C@@H]1C(=O)N2C(C(=O)[O-])=C(C[n+]3ccccc3)CS[C@H]12)c1csc(N)n1)C(=O)O` [CEFTAZIDIME]: the MIC with Escherichia coli [1] turned out to be 2 µg/mL (≈ 3.66 µM); with Escherichia coli [8] it was 0.25 µg/mL (≈ 0.457 µM); with Escherichia coli [9], 1 µg/mL (≈ 1.83 µM); in the assay on Escherichia coli [10], 128 µg/mL (≈ 234 µM); in the assay on Escherichia coli [11] it was 64 µg/mL (≈ 117 µM); in the assay on Escherichia coli [12], 16 µg/mL (≈ 29.3 µM). Also, the MIC against Escherichia coli [13] came out at 16 µg/mL (≈ 29.3 µM). Also, the MIC50 is above 16 µg/mL in the assay with Escherichia coli [2] and 2 µg/mL (≈ 3.66 µM) in the assay on Escherichia coli [5]. For the same compound, the MIC90 in the assay on Escherichia coli [2] and against Escherichia coli [5] was above 16 µg/mL throughout. For the same compound, the Activity came out at 98% with Escherichia coli [3], 99% in the assay with Escherichia coli [4], 11% in the assay with Escherichia coli [6] and 11% in the assay on Escherichia coli [7].
